Measurements reported in patent US20090131337A1, “HAIR GROWTH COMPOSITION” (AJINOMOTO CO. INC, priority 2006, published 2009).

How the values were obtained:
[1] = test system: human epidermal keratinocytes; assay: Human epidermal keratinocyte proliferation test (MTT method, MCDB153 medium); format: cell-based; conditions: concentration used 50 · mol/L, 2 days culture, medium free of hair growth components = 100
Experimental: (1) Using a serum-free proliferation medium HuMedia-KB2 (purchased from KURABO INDUSTRIES LTD., KK-2350S) added with a proliferation additive HuMedia-KG (purchased from KURABO INDUSTRIES LTD., KK-6150), human epidermal keratinocytes were plated to a cell seeding density of 2.0×10^4 cells/well in a 96 well plate.
(§1) (2) After culturing at 37° C. in a 5% carbon dioxide gas (CO2) atmosphere for one day, the medium was removed, and the cells were washed with an evaluation medium used for cell proliferation tests, i.e., MCDB153 medium. Then, various test components were dissolved in a similar evaluation medium and added to various concentrations (* mol/l).
(3) Subsequently, the cells were further cultured at 37° C. in a 5% carbon dioxide gas (CO2) atmosphere for 2 days, and the human epidermal keratinocyte proliferation rate was measured by the MTT method.
(§2) (4) The relative evaluation value was calculated based on the rate obtained using a medium free of various hair growth components as 100, and the value was taken as the proliferation rate.

[2] = test system: hair papilla cells; assay: Hair papilla cell proliferation test (MTT method); format: cell-based; conditions: concentration used 100 · mol/L; 2 days culture; DMEM with 1% FCS; medium free of hair growth components = 100
Experimental: (1) Using a proliferation medium PCGM: Papilla Cell Growth Medium (purchased from TOYOBO CO., LTD., TPGM-250), hair papilla cells were plated to a cell seeding density of 1.0×10^4 cells/well in a 96 well plate.
as §1, with “DMEM (Dulbecco's Modified Eagle's Medium) medium containing 1% FCS (fetal bovine serum).” for “MCDB153 medium.”
(3) Subsequently, the cells were further cultured at 37° C. in a 5% carbon dioxide gas (CO2) atmosphere for 2 days, and the hair papilla cell proliferation rate was measured by the MTT method.
as §2

[3] = Solubility of glutamyllysine powder in solvents; format: physicochemical

With `Nc1ncnc2c1ncn2[C@@H]1O[C@H](CO)[C@@H](O)[C@H]1O` [adenosine] the “keratinocyte proliferation rate (%)” value [1] was 118% and the “hair papilla cell proliferation rate (%)” value [2] was 99%.
In the case of `NC(CCCCNC(=O)CCC(N)C(=O)O)C(=O)O` (centres unmarked) [glutamyllysine, Epsilon-N-(gamma-glutamyl)lysine], the “keratinocyte proliferation rate (%)” value [1] is reported as 131%, the “hair papilla cell proliferation rate (%)” value [2] is reported as 124% and the “solubility in alkaline water, acidic water” value ([3]; alkaline water, acidic water and the like) is reported as “soluble”. The “solubility in organic solvents” value ([3]; various organic solvents such as methanol, ethanol, acetone) was “hardly soluble or insoluble”.
In the case of `Nc1cc(N2CCCCC2)nc(N)[n+]1[O-]` [minoxidil], the “keratinocyte proliferation rate (%)” value [1] is reported as 117% and the “hair papilla cell proliferation rate (%)” value [2] is reported as 113%.
